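Five concentrations, 48 hours, 96-well plates. GI50 is the concentration that inhibits growth by half.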 Active and inactive are the calls of the source. Cut-off read from the data, not from the text of the source: active = GI50 up to about 1.1 µM and inactive = higher.
Experiments:
Test in all cases: NCI tumour cell line growth inhibition, 48 h
[1] = tested on: UO-31
[2] = tested on: HOP-62
[3] = tested on: OVCAR-4
[4] = tested on: HCT-116
[5] = tested on: SK-MEL-28
[6] = tested on: SF-539
[7] = tested on: SN12C
[8] = tested on: NCI-H460
[9] = tested on: A549
[10] = tested on: IGROV-1
[11] = tested on: ACHN
[12] = tested on: BT-549
[13] = tested on: SF-295
[14] = tested on: HT-29
[15] = tested on: UACC-257
[16] = tested on: PC-3
[17] = tested on: K562
[18] = tested on: RPMI-8226
[19] = tested on: HL-60

Structure (SMILES)	GI50 [1]	GI50 [2]	GI50 [3]	GI50 [4]	GI50 [5]	GI50 [6]	GI50 [7]	GI50 [8]	GI50 [9]	GI50 [10]	GI50 [11]	GI50 [12]	GI50 [13]	GI50 [14]	GI50 [15]	GI50 [16]	GI50 [17]	GI50 [18]	GI50 [19]
O=C(NNc1cn[nH]c(=O)c1Cl)/C(=C/c1ccc2c(c1)OCO2)NC(=O)c1ccccc1	48.2 µM (inactive)	57.1 µM (inactive)	32.8 µM (inactive)	34.8 µM (inactive)	74.3 µM (inactive)	40.7 µM (inactive)	50 µM (inactive)	35.6 µM (inactive)	> 100 µM (inactive)	23.6 µM (inactive)	59.8 µM (inactive)	18.5 µM (inactive)	71.3 µM (inactive)	41.5 µM (inactive)	> 100 µM (inactive)	61.2 µM (inactive)			
CNC(=O)CCNC(=O)CCC(=O)OC	> 100 µM (inactive)	> 100 µM (inactive)	> 100 µM (inactive)	> 100 µM (inactive)	> 100 µM (inactive)	> 100 µM (inactive)	> 100 µM (inactive)	> 100 µM (inactive)	> 100 µM (inactive)		> 100 µM (inactive)		> 100 µM (inactive)	> 100 µM (inactive)		> 100 µM (inactive)	> 100 µM (inactive)		
OC1=C2c3ccccc3NC2Oc2cc(F)ccc21 (stereo unspecified)	13.9 µM (inactive)	17.7 µM (inactive)	16.6 µM (inactive)	14 µM (inactive)	30.1 µM (inactive)		12.7 µM (inactive)	18.5 µM (inactive)	19.5 µM (inactive)	21.7 µM (inactive)	18.7 µM (inactive)	16 µM (inactive)	14.7 µM (inactive)	19.8 µM (inactive)	19 µM (inactive)	18.8 µM (inactive)	15.6 µM (inactive)		
O=C(O)Cn1nnc2c(=O)[nH][nH]c(=O)c21	> 100 µM (inactive)	> 100 µM (inactive)	> 10 µM (inactive)	> 100 µM (inactive)	> 100 µM (inactive)		> 100 µM (inactive)	> 100 µM (inactive)	> 100 µM (inactive)		> 100 µM (inactive)	> 100 µM (inactive)	> 100 µM (inactive)	> 100 µM (inactive)	> 100 µM (inactive)		> 10 µM (inactive)	> 100 µM (inactive)	> 100 µM (inactive)
Cc1cc(S(=O)(=O)N=C2NCC(C)(C)CN2)c(S)cc1Cl	44.1 µM (inactive)	52.6 µM (inactive)	17.6 µM (inactive)	27.5 µM (inactive)	36.6 µM (inactive)	40.6 µM (inactive)	47.1 µM (inactive)	27.3 µM (inactive)	19 µM (inactive)	38.9 µM (inactive)	24.1 µM (inactive)	29.5 µM (inactive)		19.3 µM (inactive)	42.3 µM (inactive)	30.3 µM (inactive)	25.5 µM (inactive)		25.8 µM (inactive)
CN(C)C(n1cc2c(c1)-c1ccc(Cl)cc1C(c1ccccc1F)=NC2)n1cc2c(c1)-c1ccc(Cl)cc1C(c1ccccc1F)=NC2	97.3 µM (inactive)	> 100 µM (inactive)	> 100 µM (inactive)	61.1 µM (inactive)	21.5 µM (inactive)	> 100 µM (inactive)	> 100 µM (inactive)	51.3 µM (inactive)	52.4 µM (inactive)	> 100 µM (inactive)	63.2 µM (inactive)		26.3 µM (inactive)	14.3 µM (inactive)	> 100 µM (inactive)	46.6 µM (inactive)	> 100 µM (inactive)	> 100 µM (inactive)	51.3 µM (inactive)
COc1ccc(P2(=S)Oc3ccccc3-c3ccccc3O2)cc1	0.518 µM (active)	0.44 µM (active)	4.25 µM (inactive)	0.524 µM (active)	> 67.1 µM (inactive)	0.266 µM (active)	0.37 µM (active)	0.35 µM (active)	0.449 µM (active)	0.394 µM (active)	0.728 µM (active)	> 100 µM (inactive)	0.296 µM (active)	0.274 µM (active)	1.35 µM (inactive)	0.193 µM (active)	0.196 µM (active)		0.284 µM (active)
COC(=O)[C@H]1ON2O[C@@H](O[C@H]3CCCC[C@@H]3C(C)(C)c3ccccc3)C[C@@H]3CC[C@H]1[C@@]32C	> 100 µM (inactive)	> 100 µM (inactive)		> 100 µM (inactive)			> 100 µM (inactive)	> 100 µM (inactive)	> 100 µM (inactive)	> 100 µM (inactive)	> 100 µM (inactive)		> 100 µM (inactive)	> 100 µM (inactive)	> 100 µM (inactive)		> 100 µM (inactive)	> 100 µM (inactive)	> 100 µM (inactive)
O=C(/C=C(\C(=O)c1cccs1)c1cccs1)c1ccc(C(=O)/C=C(\C(=O)c2cccs2)c2cccs2)cc1	> 100 µM (inactive)	> 100 µM (inactive)	> 100 µM (inactive)	> 100 µM (inactive)	> 100 µM (inactive)	> 100 µM (inactive)	> 100 µM (inactive)	> 100 µM (inactive)	> 100 µM (inactive)	> 100 µM (inactive)	> 100 µM (inactive)		> 100 µM (inactive)	> 100 µM (inactive)	> 100 µM (inactive)	> 100 µM (inactive)	> 100 µM (inactive)	> 100 µM (inactive)	> 100 µM (inactive)
Cc1ccc2c(c1)C(O)(c1ccccc1)CCS2 (stereo unspecified)	19.2 µM (inactive)	33.7 µM (inactive)	43.4 µM (inactive)	20.8 µM (inactive)	37.6 µM (inactive)	20.2 µM (inactive)	32.6 µM (inactive)	34.8 µM (inactive)	32.8 µM (inactive)	20.6 µM (inactive)	27.2 µM (inactive)	27.3 µM (inactive)	30.1 µM (inactive)	25.4 µM (inactive)	42 µM (inactive)	25.8 µM (inactive)	20.2 µM (inactive)		28.2 µM (inactive)
O=C(NC(Nc1ccc(F)c(Cl)c1)(C(F)(F)F)C(F)(F)F)C(C(F)(F)F)C(F)(F)F	19.5 µM (inactive)	> 100 µM (inactive)	29 µM (inactive)	16 µM (inactive)	50.7 µM (inactive)	22.6 µM (inactive)	32.5 µM (inactive)	36.1 µM (inactive)	27.2 µM (inactive)	13.4 µM (inactive)	13.5 µM (inactive)		36.5 µM (inactive)	21.9 µM (inactive)	32.7 µM (inactive)	24.8 µM (inactive)	14.5 µM (inactive)	20 µM (inactive)	15.6 µM (inactive)
Nc1c(C(=O)O)nnc2cc(Cl)ccc12	> 100 µM (inactive)	> 100 µM (inactive)	> 100 µM (inactive)	> 100 µM (inactive)		> 100 µM (inactive)	> 100 µM (inactive)	> 100 µM (inactive)	> 100 µM (inactive)	> 100 µM (inactive)	97.5 µM (inactive)	> 100 µM (inactive)	> 100 µM (inactive)	> 100 µM (inactive)	> 100 µM (inactive)	> 100 µM (inactive)	> 100 µM (inactive)		> 100 µM (inactive)
COc1cccc(NC(=O)c2c(SC)c(C#N)c(=O)n(N)c2N)c1		50.9 µM (inactive)	40.9 µM (inactive)	35.2 µM (inactive)	> 100 µM (inactive)	66.4 µM (inactive)	> 100 µM (inactive)	67.1 µM (inactive)	57.7 µM (inactive)	> 100 µM (inactive)	> 100 µM (inactive)	61.8 µM (inactive)	34.2 µM (inactive)	52 µM (inactive)	> 100 µM (inactive)	49.8 µM (inactive)	45.9 µM (inactive)		
CC(NCc1c(O)ccc2c(-c3ccccc3)cc(=O)oc12)C(=O)O (stereo unspecified)	> 100 µM (inactive)	> 100 µM (inactive)	> 100 µM (inactive)	> 100 µM (inactive)	> 100 µM (inactive)	> 100 µM (inactive)	> 100 µM (inactive)	> 100 µM (inactive)	> 100 µM (inactive)	> 100 µM (inactive)	> 100 µM (inactive)		> 100 µM (inactive)	> 100 µM (inactive)	> 100 µM (inactive)	> 100 µM (inactive)	> 100 µM (inactive)	> 100 µM (inactive)	> 100 µM (inactive)
C=C1C(=O)O[C@@H]2[C@H]1CC[C@H](C)[C@]1(O)CCC(=O)[C@@]21C [CORONOPILIN]	0.0094 µM (active)	> 10 µM (inactive)	> 10 µM (inactive)	> 10 µM (inactive)	> 10 µM (inactive)	> 10 µM (inactive)	> 10 µM (inactive)		> 10 µM (inactive)	> 10 µM (inactive)			> 10 µM (inactive)	> 10 µM (inactive)		> 10 µM (inactive)	> 10 µM (inactive)	> 10 µM (inactive)	3.66 µM (inactive)
Nc1nc2[nH]cc(CCc3ccc(C(=O)N[C@@H](CCC(=O)O)C(=O)O)cc3)c2c(=O)[nH]1 [PEMETREXED]		> 100 µM (inactive)	> 100 µM (inactive)	0.0597 µM (active)	> 100 µM (inactive)	< 0.01 µM (active)	> 100 µM (inactive)	0.0359 µM (active)	1.4 µM (inactive)	> 100 µM (inactive)	0.0255 µM (active)	> 100 µM (inactive)	0.418 µM (active)	> 100 µM (inactive)	> 100 µM (inactive)	> 100 µM (inactive)	< 0.0258 µM (active)		0.0652 µM (active)

— ChEMBL document CHEMBL1201862, “PubChem BioAssay data set” (2004)
